# Measurements as given in US10301299B2, “Glycosidase inhibitors” (Merck Patent GmbH, priority 2013, dated 2019).
# Where two headings read alike, the source gives them in different places.
# Assays:
# His-Tagged hOGA = target: T1, His-Tagged hOGA (Homo sapiens, UniProt O60502); assay: Human O-GlcNAcase enzyme inhibition assay; type: biochemical
# T1 sequence (O60502 1-916): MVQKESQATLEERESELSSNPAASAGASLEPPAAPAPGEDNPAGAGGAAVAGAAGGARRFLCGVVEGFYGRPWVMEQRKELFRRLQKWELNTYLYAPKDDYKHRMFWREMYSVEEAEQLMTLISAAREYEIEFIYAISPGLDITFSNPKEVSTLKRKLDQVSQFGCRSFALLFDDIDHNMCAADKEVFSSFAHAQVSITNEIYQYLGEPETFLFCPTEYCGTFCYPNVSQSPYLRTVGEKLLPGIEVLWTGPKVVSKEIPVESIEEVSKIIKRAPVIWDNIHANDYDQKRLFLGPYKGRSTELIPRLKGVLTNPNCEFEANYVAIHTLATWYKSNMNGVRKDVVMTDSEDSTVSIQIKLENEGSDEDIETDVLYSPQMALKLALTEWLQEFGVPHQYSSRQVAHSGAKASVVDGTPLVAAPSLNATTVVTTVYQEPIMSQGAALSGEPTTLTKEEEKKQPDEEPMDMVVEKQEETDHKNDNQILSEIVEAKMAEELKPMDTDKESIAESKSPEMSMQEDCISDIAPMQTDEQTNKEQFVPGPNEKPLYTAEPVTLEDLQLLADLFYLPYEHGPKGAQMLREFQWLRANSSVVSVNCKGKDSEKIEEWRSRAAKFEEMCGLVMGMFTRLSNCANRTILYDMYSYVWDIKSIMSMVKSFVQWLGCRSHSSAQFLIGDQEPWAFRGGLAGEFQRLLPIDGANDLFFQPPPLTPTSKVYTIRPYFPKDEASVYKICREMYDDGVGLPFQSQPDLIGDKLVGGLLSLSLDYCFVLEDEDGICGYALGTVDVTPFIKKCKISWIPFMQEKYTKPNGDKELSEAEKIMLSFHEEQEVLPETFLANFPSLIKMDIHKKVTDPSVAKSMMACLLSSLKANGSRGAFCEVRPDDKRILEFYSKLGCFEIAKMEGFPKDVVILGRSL
# Protocol: The following reaction components were added to a final volume of 10 μL in Mcllvaine's Buffer (pH 6.5): 20 nM His-Tagged hOGA and 10 μM Fluorescein mono-beta-D-(2-deoxy-2-N-acetyl) glucopyranoside (FL-GlcNAc; Marker Gene Technologies Inc, Part # M1485). […] The amount of fluorescence measured was plotted against the concentration of inhibitor to produce a sigmoidal dose response curve, from which an IC50 was calculated.
# [1] = test system: B35 rat neuroblastoma cells; assay: Cellular O-GlcNAcylation assay (tau O-GlcNAc S400, ICC); type: cell-based; details: Neuroblastoma cell, 16 h, tau O-GlcNAcylated at serine 400
# Protocol: The following day cells were treated with appropriate concentration of a solution of inhibitor for 16 h at 37° C. in 5% CO2. Cells were fixed in 100 μl 4% paraformaldehyde for 15 min at room temperature, followed by three washes in PBS buffer. The cells were then permeabilized with 0.1% Triton X-100 for 60 min at room temperature. After three washes in PBS the cells were blocked with 10% goat serum containing 1% BSA in PBS buffer for two hours at room temperature. The cells were then incubated with a monoclonal rabbit antibody specific for tau O-GlcNAcylated at serine 400 (Epitomics) at a 1:1000 dilution overnight at 4° C. […] To calculate an EC50 the total peak intensity was plotted against the concentration of inhibitor to produce a sigmoidal dose response curve.
# [2] = 20 nM His-Tagged hOGA, 10 μM FL-GlcNAc, pH 6.5, 60 min, read-out: hOGA enzyme inhibition (IC50)
SMILES,IC50 (His-Tagged hOGA; [2]) [µM],EC50 [1] [µM],IC50 (His-Tagged hOGA) [µM]
"COc1ccc(C2CCN(Cc3cnc(NC(C)=O)s3)CC2)cc1 [Compound 16, N-(5-((4-(4-methoxyphenyl)piperidin-1-yl)methyl)thiazol-2-yl)acetamide]",< 0.2,1 to 10,–
"CC(=O)Nc1ncc(CNCCCc2ccccc2)s1 [Compound 20, N-{5-[(3-phenyl-propylamino)-methyl]-thiazol-2-yl}-acetamide]",0.2 to 1,1 to 10,–
"CC(=O)Nc1ncc(CN(C)CCCc2ccccc2)s1 [Compound 21, N-(5-{[methyl-(3-phenyl-propyl)-amino]-methyl}-thiazol-2-yl)-acetamide]",< 0.2,1 to 10,–
"CC(=O)Nc1ncc(CN2CCCCC2)s1 [Compound 25, N-(5-piperidin-1-ylmethyl-thiazol-2-yl)-acetamide]",1 to 10,0.2 to 1,–
"CC(=O)Nc1ncc(CN2CCC(C(C)C)CC2)s1 [Compound 26, N-[5-(4-isopropylpiperidin-1-ylmethyl)thiazol-2-yl]-acetamide]",< 0.2,1 to 10,–
"CC(=O)Nc1ncc(CN2CCC(C3CCCCC3)CC2)s1 [Compound 27, N-(5-((4-cyclohexylpiperidin-1-yl)methyl)thiazol-2-yl)acetamide]",< 0.2,< 0.2,–
"COc1cccc(C2CCN(Cc3cnc(NC(C)=O)s3)CC2)c1 [Compound 32, N-(5-((4-(3-methoxyphenyl)piperidin-1-yl)methyl)thiazol-2-yl)acetamide]",< 0.2,0.2 to 1,–
"CC(=O)Nc1ncc(CN2CCC(c3ccc(C#N)cc3)CC2)s1 [Compound 36, N-(5-((4-(4-cyanophenyl)piperidin-1-yl)methyl)thiazol-2-yl)acetamide]",0.2 to 1,0.2 to 1,–
"CC(=O)Nc1ncc(CN2CCC(c3ccc(O)cc3)CC2)s1 [Compound 38, N-(5-((4-(4-hydroxyphenyl)piperidin-1-yl)methyl)thiazol-2-yl)acetamide]",< 0.2,0.2 to 1,–
"CC(=O)Nc1ncc(C(C)N2CCC(c3ccccc3)CC2)s1 (stereo not drawn) [Compound 40, N-(5-(1-(4-phenylpiperidin-1-yl)ethyl)thiazol-2-yl)acetamide]",0.2 to 1,0.2 to 1,–
"CC(=O)Nc1ncc(CN2CCC(c3ccc(F)cc3)CC2)s1 [Compound 42, N-(5-((4-(4-fluorophenyl)piperidin-1-yl)methyl)thiazol-2-yl)acetamide]",0.2 to 1,0.2 to 1,–
"CC(=O)Nc1ncc(CN2CCC(c3ccc(C(=O)O)cc3)CC2)s1 [Compound 45, 4-(1-((2-acetamidothiazol-5-yl)methyl)piperidin-4-yl)benzoic acid]",0.2 to 1,1 to 10,–

# Other lines, results leading:
IC50 (His-Tagged hOGA; [2]) [µM],EC50 [1] [µM],IC50 (His-Tagged hOGA) [µM],SMILES
0.2 to 1,1 to 10,–,"CC(=O)Nc1ncc(CN2CCN(c3ccccc3)CC2)s1 [Compound 19, N-[5-(4-phenyl-piperazin-1-ylmethyl)-thiazol-2-yl]-acetamide]"
0.2 to 1,1 to 10,–,"CC(=O)Nc1ncc(CN2CC(c3ccccc3)C2)s1 [Compound 22, N-[5-(3-phenyl-azetidin-1-ylmethyl)-thiazol-2-yl]-acetamide]"
–,< 0.2,< 0.2,"CC(=O)Nc1ncc(CN2CCC(Cc3ccccc3)CC2)s1 [Compound 28, N-(5-((4-benzylpiperidin-1-yl)methyl)thiazol-2-yl)acetamide]"
< 0.2,1 to 10,–,"CC(=O)Nc1ncc(CN2CCCC(c3ccccc3)C2)s1 (stereo not drawn) [Compound 29, N-(5-((3-phenylpiperidin-1-yl)methyl)thiazol-2-yl)acetamide]"
0.2 to 1,0.2 to 1,–,"CC(=O)Nc1ncc(CN2CCC(c3ccccc3F)CC2)s1 [Compound 30, N-(5-((4-(2-fluorophenyl)piperidin-1-yl)methyl)thiazol-2-yl)acetamide]"
< 0.2,< 0.2,–,"CC(=O)Nc1ncc(CN2CCC(c3cccc(C)c3)CC2)s1 [Compound 31, N-(5-((4-(m-tolyl)piperidin-1-yl)methyl)thiazol-2-yl)acetamide]"
0.2 to 1,0.2 to 1,–,"COc1ccccc1C1CCN(Cc2cnc(NC(C)=O)s2)CC1 [Compound 33, N-(5-((4-(2-methoxyphenyl)piperidin-1-yl)methyl)thiazol-2-yl)acetamide]"
1 to 10,0.2 to 1,–,"CC(=O)Nc1ncc(CN2CCC(c3ccccc3C#N)CC2)s1 [Compound 35, N-(5-((4-(2-cyanophenyl)piperidin-1-yl)methyl)thiazol-2-yl)acetamide]"
0.2 to 1,< 0.2,–,"CC(=O)Nc1ncc(CN2CCC(c3ccccc3O)CC2)s1 [Compound 37, N-(5-((4-(2-hydroxyphenyl)piperidin-1-yl)methyl)thiazol-2-yl)acetamide]"
0.2 to 1,0.2 to 1,–,"CC(=O)Nc1ncc(CN2CCC(c3cccc(O)c3)CC2)s1 [Compound 39, N-(5-((4-(3-hydroxyphenyl)piperidin-1-yl)methyl)thiazol-2-yl)acetamide]"
1 to 10,1 to 10,–,"CC(=O)Nc1ncc(CN2CCC(F)(c3ccccc3)CC2)s1 [Compound 41, N-[5-(4-fluoro-4-phenyl-piperidin-1-ylmethyl)-thiazol-2-yl]-acetamide]"
1 to 10,0.2 to 1,–,"CC(=O)Nc1ncc(CN2CCC(c3ccccc3C)CC2)s1 [Compound 43, N-(5-((4-(o-tolyl)piperidin-1-yl)methyl)thiazol-2-yl)acetamide]"
